Assay results taken from US12473304B2, “Heterocyclic PAD4 inhibitors” (BRISTOL-MYERS SQUIBB COMPANY, priority 2020, dated 2025).

Target: human PAD4 (hPAD4) (Homo sapiens (Human), UniProt Q9UM07)
Experiment: RFMS Human PAD4 Functional Assay 1
Format: biochemical
Settings: RFMS assay 1; 5 nM hPAD4, 250 μM BAEE substrate, 50 μM calcium, 37° C.
Summary of the method: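 Recombinant hPAD4 (5 nM) was preincubated with compound (top 50 μM, 0.5% DMSO) for 30 min at 37 °C, then reacted with 250 μM BAEE for 90 min at 37 °C in pH 7.5 HEPES buffer with 50 μM calcium and 5 μM TPEN. Product was derivatized with phenyl glyoxal and quantified by RapidFire MS.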

human PAD4 (hPAD4), sequence (Q9UM07 whole entry): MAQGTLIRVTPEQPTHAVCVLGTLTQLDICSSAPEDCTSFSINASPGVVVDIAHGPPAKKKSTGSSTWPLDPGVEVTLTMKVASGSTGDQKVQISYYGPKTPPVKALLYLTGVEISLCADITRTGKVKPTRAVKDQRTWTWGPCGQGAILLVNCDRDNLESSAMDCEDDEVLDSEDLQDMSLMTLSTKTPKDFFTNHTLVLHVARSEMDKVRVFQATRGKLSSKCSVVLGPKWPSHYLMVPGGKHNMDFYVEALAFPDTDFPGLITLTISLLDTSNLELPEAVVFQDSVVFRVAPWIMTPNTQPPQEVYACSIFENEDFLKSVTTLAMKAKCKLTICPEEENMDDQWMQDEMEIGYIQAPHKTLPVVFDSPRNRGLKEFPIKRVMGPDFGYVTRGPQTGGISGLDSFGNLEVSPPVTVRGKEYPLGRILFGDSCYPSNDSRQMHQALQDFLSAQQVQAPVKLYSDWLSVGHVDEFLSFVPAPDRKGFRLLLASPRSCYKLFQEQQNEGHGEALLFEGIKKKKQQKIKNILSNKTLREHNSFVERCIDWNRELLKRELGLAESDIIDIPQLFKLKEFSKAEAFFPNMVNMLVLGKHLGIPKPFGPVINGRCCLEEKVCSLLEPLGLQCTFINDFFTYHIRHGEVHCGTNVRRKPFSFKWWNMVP

Row | IC50 [nM] | SMILES
1 | 150 | Cc1c(-c2cc3cc(F)cc(C4CCN(C(=O)[C@H]5CC[C@@H](O)CC5)CC4)c3n2CC2CC2)nn2cc(C(=O)N3CCC[C@@H](N)C3)ccc12 [Example 485, ((R)-3-Aminopiperidin-1-yl)(2-(1-(cyclopropylmethyl)-5-fluoro-7-(1-((1s,4s)-4-hydroxycyclohexane-1-carbonyl)piperidin-4-yl)-1H-indol-2-yl)-3-methylpyrazolo[1,5-a]pyridin-6-yl)methanone]
2 | 70 | Cc1c(-c2cc3cc(F)cc(C4CCN(C(=O)[C@H]5CC[C@@H](O)CC5)CC4)c3n2CC2CC2)nn2cc(C(=O)N3C[C@H](N)C[C@@H](F)C3)ccc12 [Example 486, ((3R,5R)-3-Amino-5-fluoropiperidin-1-yl)(2-(1-(cyclopropylmethyl)-5-fluoro-7-(1-((1s,4s)-4-hydroxycyclohexane-1-carbonyl)piperidin-4-yl)-1H-indol-2-yl)-3-methylpyrazolo[1,5-a]pyridin-6-yl)methanone]
3 | 200 | Cc1c(-c2cc3cc(F)cc(C4CCN(C(=O)[C@H]5CC[C@H](O)CC5)CC4)c3n2CC2CC2)nn2cc(C(=O)N3C[C@H](N)C[C@@H](F)C3)ccc12 [Example 487, ((3R,5R)-3-Amino-5-fluoropiperidin-1-yl)(2-(1-(cyclopropylmethyl)-5-fluoro-7-(1-((1r,4r)-4-hydroxycyclohexane-1-carbonyl)piperidin-4-yl)-1H-indol-2-yl)-3-methylpyrazolo[1,5-a]pyridin-6-yl)methanone]
4 | 110 | COC(C)(C)C(=O)N1CCC(c2cc(F)cc3cc(-c4nn5cc(C(=O)N6CCC[C@@H](N)C6)ccc5c4C)n(CC4CC4)c23)CC1 [Example 493, (R)-1-(4-(2-(6-(3-Aminopiperidine-1-carbonyl)-3-methylpyrazolo[1,5-a]pyridin-2-yl)-1-(cyclopropylmethyl)-5-fluoro-1H-indol-7-yl)piperidin-1-yl)-2-methoxy-2-methylpropan-1-one]
5 | 330 | Cc1c(-c2cc3cc(F)cc(C4CCN(C(=O)CC(C)C)CC4)c3n2CC2CC2)nn2cc(C(=O)N3C[C@H](N)C[C@@H](F)C3)ccc12 [Example 495, 1-(4-(2-(6-((3R,5R)-3-Amino-5-fluoropiperidine-1-carbonyl)-3-methylpyrazolo[1,5-a]pyridin-2-yl)-1-(cyclopropylmethyl)-5-fluoro-1H-indol-7-yl)piperidin-1-yl)-3-methylbutan-1-one]
6 | 40 | CO[C@H](C)C(=O)N1CCC(c2cc(F)cc3cc(-c4nn5cc(C(=O)N6CCC[C@@H](N)C6)ccc5c4C)n(CC4CC4)c23)CC1 [Example 497, (R)-1-(4-(2-(6-((R)-3-Aminopiperidine-1-carbonyl)-3-methylpyrazolo[1,5-a]pyridin-2-yl)-1-(cyclopropylmethyl)-5-fluoro-1H-indol-7-yl)piperidin-1-yl)-2-methoxypropan-1-one]
7 | 70 | CO[C@H](C)C(=O)N1CCC(c2cc(F)cc3cc(-c4nn5cc(C(=O)N6C[C@H](N)C[C@@H](F)C6)ccc5c4C)n(CC4CC4)c23)CC1 [Example 498, (R)-1-(4-(2-(6-((3R,5R)-3-Amino-5-fluoropiperidine-1-carbonyl)-3-methylpyrazolo[1,5-a]pyridin-2-yl)-1-(cyclopropylmethyl)-5-fluoro-1H-indol-7-yl)piperidin-1-yl)-2-methoxypropan-1-one]
8 | 150 | CO[C@@H](C)C(=O)N1CCC(c2cc(F)cc3cc(-c4nn5cc(C(=O)N6CCC[C@@H](N)C6)ccc5c4C)n(CC4CC4)c23)CC1 [Example 499, (S)-1-(4-(2-(6-((R)-3-Aminopiperidine-1-carbonyl)-3-methylpyrazolo[1,5-a]pyridin-2-yl)-1-(cyclopropylmethyl)-5-fluoro-1H-indol-7-yl)piperidin-1-yl)-2-methoxypropan-1-one]
9 | 240 | CO[C@@H](C)C(=O)N1CCC(c2cc(F)cc3cc(-c4nn5cc(C(=O)N6C[C@H](N)C[C@@H](F)C6)ccc5c4C)n(CC4CC4)c23)CC1 [Example 500, (S)-1-(4-(2-(6-((3R,5R)-3-Amino-5-fluoropiperidine-1-carbonyl)-3-methylpyrazolo[1,5-a]pyridin-2-yl)-1-(cyclopropylmethyl)-5-fluoro-1H-indol-7-yl)piperidin-1-yl)-2-methoxypropan-1-one]
10 | 130 | COC(C)(C)C(=O)N1CCC(c2cc(F)cc3cc(-c4nn5cc(C(=O)N6C[C@H](N)C[C@@H](F)C6)ccc5c4C)n(CC4CC4)c23)CC1 [Example 501, 1-(4-(2-(6-((3R,5R)-3-Amino-5-fluoropiperidine-1-carbonyl)-3-methylpyrazolo[1,5-a]pyridin-2-yl)-1-(cyclopropylmethyl)-5-fluoro-1H-indol-7-yl)piperidin-1-yl)-2-methoxy-2-methylpropan-1-one]
11 | 70 | COCC(=O)N1CCC(c2cc(F)cc3cc(-c4nn5cc(C(=O)N6CCC[C@@H](N)C6)ccc5c4C)n(CC4CC4)c23)CC1 [Example 502, (R)-1-(4-(2-(6-(3-Aminopiperidine-1-carbonyl)-3-methylpyrazolo[1,5-a]pyridin-2-yl)-1-(cyclopropylmethyl)-5-fluoro-1H-indol-7-yl)piperidin-1-yl)-2-methoxyethan-1-one]
12 | 60 | COCC(=O)N1CCC(c2cc(F)cc3cc(-c4nn5cc(C(=O)N6C[C@H](N)C[C@@H](F)C6)ccc5c4C)n(CC4CC4)c23)CC1 [Example 503, 1-(4-(2-(6-((3R,5R)-3-Amino-5-fluoropiperidine-1-carbonyl)-3-methylpyrazolo[1,5-a]pyridin-2-yl)-1-(cyclopropylmethyl)-5-fluoro-1H-indol-7-yl)piperidin-1-yl)-2-methoxyethan-1-one]
13 | 110 | Cc1c(-c2cc3cc(F)cc(C4CCN(C(=O)C5CC(O)(C(F)(F)F)C5)CC4)c3n2CC2CC2)nn2cc(C(=O)N3CCC[C@@H](N)C3)ccc12 (stereo partly drawn) [Example 504, (R)-(3-Aminopiperidin-1-yl)(2-(1-(cyclopropylmethyl)-5-fluoro-7-(1-(3-hydroxy-3-(trifluoromethyl)cyclobutane-1-carbonyl)piperidin-4-yl)-1H-indol-2-yl)-3-methylpyrazolo[1,5-a]pyridin-6-yl)methanone]
14 | 70 | CC(=O)N1CCC(c2cc(F)cc3cc(-c4nn5cc(C(=O)N6CCC[C@@H](N)C6)ccc5c4C)n(CC4CC4)c23)CC1 [Example 506, (R)-1-(4-(2-(6-(3-Aminopiperidine-1-carbonyl)-3-methylpyrazolo[1,5-a]pyridin-2-yl)-1-(cylcopropylmethyl)-5-fluoro-1H-indol-7-yl)piperidin-1-yl)ethan-1-one]
15 | 170 | CC(=O)N1CCC(c2cc(F)cc3cc(-c4nn5cc(C(=O)N6C[C@H](N)C[C@@H](F)C6)ccc5c4C)n(CC4CC4)c23)CC1 [Example 507, 1-(4-(2-(6-((3R,5R)-3-Amino-5-fluoropiperidine-1-carbonyl)-3-methylpyrazolo[1,5-a]pyridin-2-yl)-1-(cyclopropylmethyl)-5-fluoro-1H-indol-7-yl)piperidin-1-yl)ethan-1-one]
16 | 10 | COCC(=O)N1CCC(c2nccc3cc(-c4nn5cc(C(=O)N6C[C@H](N)C[C@@H](F)C6)cc(OC)c5c4C)n(CC4CC4)c23)CC1 [Example 511, 1-(4-(2-(6-((3R,5R)-3-Amino-5-fluoropiperidine-1-carbonyl)-4-methoxy-3-methylpyrazolo[1,5-a]pyridin-2-yl)-1-(cyclopropylmethyl)-1H-pyrrolo[2,3-c]pyridin-7-yl)piperidin-1-yl)-2-methoxyethan-1-one]
17 | 60 | COc1cc(C(=O)N2C[C@H](N)C[C@@H](F)C2)cn2nc(-c3cc4cccc(C5CN(C(=O)[C@H]6CC[C@H](O)CC6)C5)c4n3CC3CC3)c(C)c12 [Example 514, ((3R,5R)-3-Amino-5-fluoropiperidin-1-yl)(2-(1-(cyclopropylmethyl)-7-(1-((1R,4R)-4-hydroxycyclohexane-1-carbonyl)azetidin-3-yl)-1H-indol-2-yl)-4-methoxy-3-methylpyrazolo[1,5-a]pyridin-6-yl)methanone]
18 | 1040 | COc1cc(C(=O)N2CCC[C@@H](N)C2)cn2nc(-c3cc4cccc(C5CN(C(=O)C(C)(C)OC)C5)c4n3CC3CC3)c(C)c12 [Example 516, (R)-1-(3-(2-(6-(3-Aminopiperidine-1-carbonyl)-4-methoxy-3-methylpyrazolo[1,5-a]pyridin-2-yl)-1-(cyclopropylmethyl)-1H-indol-7-yl)azetidin-1-yl)-2-methoxy-2-methylpropan-1-one]
19 | 60 | COc1cc(C(=O)N2CCC[C@@H](N)C2)cn2nc(-c3cc4cccc(C5CN(C(=O)[C@H]6CC[C@H](O)CC6)C5)c4n3CC3CC3)c(C)c12 [Example 517, ((R)-3-Aminopiperidin-1-yl)(2-(1-(cyclopropylmethyl)-7-(1-((1r,4r)-4-hydroxycyclohexane-1-carbonyl)azetidin-3-yl)-1H-indol-2-yl)-4-methoxy-3-methylpyrazolo[1,5-a]pyridin-6-yl)methanone]
20 | 260 | COc1cc(C(=O)N2C[C@H](N)C[C@@H](F)C2)cn2nc(-c3cc4cccc(C5CN(C(=O)C(C)(C)OC)C5)c4n3CC3CC3)c(C)c12 [Example 518, 1-(3-(2-(6-((3R,5R)-3-Amino-5-fluoropiperidine-1-carbonyl)-4-methoxy-3-methylpyrazolo[1,5-a]pyridin-2-yl)-1-(cyclopropylmethyl)-1H-indol-7-yl)azetidin-1-yl)-2-methoxy-2-methylpropan-1-one]
21 | 40 | COc1cc(C(=O)N2C[C@H](N)C[C@@H](F)C2)cn2nc(-c3cc4cccc(C5CN(C(=O)[C@H]6CC[C@@H](O)CC6)C5)c4n3CC3CC3)c(C)c12 [Example 519, ((3R,5R)-3-Amino-5-fluoropiperidin-1-yl)(2-(1-(cyclopropylmethyl)-7-(1-((1s,4s)-4-hydroxycyclohexane-1-carbonyl)azetidin-3-yl)-1H-indol-2-yl)-4-methoxy-3-methylpyrazolo[1,5-a]pyridin-6-yl)methanone]
